row,melting point [°C],Compound
1,96 to 99,CC(C)(O)C(=O)c1ccc(Oc2ccc(C(=O)C(C)(C)O)cc2)cc1
2,183 to 184,CCc1cn(C2CC(O)C(CNC(=O)C(C)S(=O)(=O)c3ccc(Cl)cc3Cl)O2)c(=O)[nH]c1=O (mixture of isomers)
3,> 300,O=c1cc(-c2ccc(F)cc2)c2c([nH]1)C1CCC(C2)C1 (stereo unspecified)
4,289 to 290,CCc1ccc2ncc(-c3nnn[nH]3)c(=O)n2c1
5,35 to 38,CCCCCCCCCCCCCCCCCCSC(C)CCO (stereo unspecified)
6,153 to 155,COC(=O)CCc1sc(Sc2ccc(O)cc2)nc1-c1ccccc1
7,171 to 173,NS(=O)(=O)c1ccc(NS(=O)(=O)/C=C/c2ccccc2)cc1
8,271 to 272,CSc1ccc2ncn(/C=C/C(=O)O)c(=O)c2c1
9,220 to 222,CCCOc1cc(C(=O)O)cc(N)c1C(=O)c1ccccc1
10,116 to 120,Cc1ccc(S(=O)(=O)OCC2COc3ccc([N+](=O)[O-])c(CC=O)c3O2)cc1 (stereo unspecified)
11,197 to 198,O=C(O)COc1ccc(Cl)cc1-c1ccc(C(=O)N2CCCC2)c(C(F)(F)F)c1
12,205,C#CCOc1ccc(S(=O)(=O)C2(C(=O)O)CCN(Cc3ccc(Cl)cc3)CC2)cc1
13,52 to 55,COC(=O)Cc1ccc(OCCNC(=O)C2Cc3ccccc3N2S(=O)(=O)c2ccc(-c3cc(C(F)(F)F)ccc3F)cc2)cc1 (stereo unspecified)
14,138 to 140,CC(C)(C)c1ccc(S(=O)(=O)NCCCCOc2ccc(-n3ccnc3)cc2)cc1
15,132 to 133,CC(=O)Oc1c(C)c(C=O)nc2ccccc12
16,127 to 129,COC1(c2cc(F)cc(Sc3ccc(NC(C)=O)cc3)c2)CCN(CC(F)(F)F)C1 (stereo unspecified)
17,199 to 200,CC(C)c1cc(C(C)C)c2c(c1)C1(N)C(=O)c3ccccc3C1(O)O2 (stereo unspecified)
18,194 to 195,COc1ccc(S(=O)(=O)N2C(=O)[C@@](c3ccccc3OC)(N3C[C@H](OC(C)=O)C[C@H]3C(=O)N(C)C)c3cc(Cl)ccc32)c(OC)c1
19,65,CN1C(=O)C(c2ccc(OC(F)F)cc2)(c2cccc(CCCCC#N)c2)N=C1N (stereo unspecified)
20,195 to 196,COc1ccc(-c2cc(C(N)=O)c(=O)n(CC=Cc3ccc(Cl)cc3)n2)cc1
21,129 to 131,O=C1NC(=O)C(S(=O)(=O)c2ccccn2)S1 (stereo unspecified)
22,218 to 220,Cc1nc(-c2ccc(C(=O)O)s2)no1
23,243 to 244,COc1ccc(Cn2cnc(=O)c3[nH]c(C(C)C)nc32)cc1OC1CCCC1

row,melting point [°C],Compound
1,164 to 165,COC(=O)C(C)(C)c1ccc2c(c1)c(=O)[nH]c(=O)n2CCCCBr
2,187 to 189,CCOC(=O)c1ccc(OC(=O)c2ccc(C(=O)Oc3ccc(C(=O)OCC)cc3)cc2)cc1
3,73 to 75,N#CC1(SCc2ccccc2)C2CC3CC(C2)CC1C3 (stereo unspecified)
4,205 to 210,N#CC(C(=O)Nc1ccccc1)C(=O)c1nn(-c2ccccc2)c2c1CSc1ccc(N=CN3CCOCC3)cc1-2 (stereo unspecified)
5,49 to 51,C#CC(C)OS(=O)(=O)c1ccc(C)cc1 (stereo unspecified)
6,240 to 244,CCNC(=O)Nc1ccc(-c2sc3c(c2CN(C)CCC(=O)NCCOC)c(=O)n(-c2ccccc2)c(=O)n3Cc2c(F)cccc2F)cc1
7,187 to 188,COc1ccc(CNc2ncnc(Cl)c2N)cc1
8,171,O=C(O)Cc1cc(C(=O)c2cccc(F)c2)ccc1O
9,278 to 282,O=C(O)c1cn(Cc2cnsn2)c2cc(F)c(F)cc2c1=O
10,147 to 148,CC(=O)c1cc(NC(=O)NCCCN(CCCNC(=O)Nc2cc(C(C)=O)cc(C(C)=O)c2)CCCNC(=O)Nc2cc(C(C)=O)cc(C(C)=O)c2)cc(C(C)=O)c1
11,144 to 145,Nc1ccc(CC2CCN(S(=O)(=O)N3CCCCC3)CC2)cc1
12,75 to 77,Nc1cccc(C(=O)O)c1S(=O)(=O)CCO
13,152,COc1ccc2c(=O)c(-c3ccccc3)c(SCc3cccnc3)oc2c1
14,228 to 229,FC(F)(F)c1cc(-n2cc(/C=C/c3nnn[nH]3)c(-c3cccc(Cl)c3)n2)cc(C(F)(F)F)c1
15,117 to 118,CCn1c(=Nc2ccccc2)sc2ncccc2c1=O
16,253 to 254,Cc1nnc(C=Cc2ccccc2O)s1
17,172 to 174,O=C(Nc1ccc(Oc2ccnc(N3CCC(F)(F)CC3)n2)c2ccccc12)c1cc(F)cc(N2CCCCC2)c1
18,206 to 208,CCN(CC)S(=O)(=O)c1cc(C)c2c(c1)S(=O)(=O)NC(C1CCCCC1)=N2
19,115 to 120,CCOC(=O)COc1ccc2cc(-c3oc4ccccc4c3CCC3CCCC3)ccc2c1Br
20,210 to 215,CCc1ncnc2cc(O)c(OC)cc12
21,63 to 64,CC1(C)CC(N=[N+]=[N-])c2cc(C#N)ccc2O1 (stereo unspecified)
22,172 to 173,COc1ccc(C(=O)c2ccc(O)cc2)c(OC(C)(C)C(=O)OC(C)(C)C)c1
23,53 to 55,C=CCN(CC=C)c1cc(CCl)nc(N)n1

row,melting point [°C],Compound
1,131 to 133,O=C1OCC(c2ccccc2)N1CC1C2CCC(O2)C1CO (stereo unspecified)
2,156 to 159,Cn1nc(-c2c(F)cccc2Cl)nc1-c1ccc(OCc2ccc(C(F)(F)F)cc2Cl)c(Cl)c1
3,192,CCC(=O)N[C@H]1CC[C@H](CCN2CCN(c3nccc4c3CCO4)CC2)CC1
4,158 to 160,CC(C)(C)OC(=O)C(N)CCCCNC(=O)c1ccc(Cl)c(S(N)(=O)=O)c1 (stereo unspecified)
5,150 to 151,CN1CCC(=C2c3ccc(Cl)cc3CC(=O)c3sccc32)CC1
6,102 to 104,Cc1ccc(F)cc1C(=O)Nc1ccc(C(=O)N2Cc3ccccc3Nc3ncccc32)cn1
7,93 to 96,OC(C#Cc1ccncc1)c1ccccc1 (stereo unspecified)
8,141 to 144,CCCCCS(=O)(=O)NC(=O)/C=C/c1ccc(OCCOC(C)=O)cc1Oc1ncc(C(F)(F)F)cc1Cl
9,123 to 126,Nc1cc(C2COCCO2)ccn1 (stereo unspecified)
10,160 to 162,O=C(O)Cc1ccccc1CC(=O)Nc1cccc(/C=C/c2nc(C3CCC3)cs2)c1
11,70 to 74,CNC(=O)NC(=O)C(CC1CCC(=O)C1)c1ccc(Cl)c(Cl)c1 (stereo unspecified)
12,140 to 141,CCC(C)(C)c1ccc(OCCCNC(=O)c2cc(OS(=O)(=O)CCCOc3ccc([N+](=O)[O-])cc3)c3ccccc3c2O)c(C(C)(C)CC)c1
13,89 to 91,Cn1c(CO)cc2cccc(F)c21
14,135 to 142,O=C(Nc1ccc(-n2nc(C3CC3)cc2C2CC2)cc1)c1cccc(F)c1F
15,144 to 145,O=C(O)COc1ccccc1C(=O)NCc1ccc(Br)cc1F
16,108 to 109,Cc1oc(C=Cc2ccccc2)nc1CCl
17,266,COc1ccc2[nH]cc(C=C3SC(=S)N(CC(=O)O)C3=O)c2c1
18,254 to 256,C/C(=C(\C#N)C(=S)/N=C/N(C)C)N1CCCN(c2ccc(C)c(F)c2)CC1
19,179,Cc1ccnc(C(=O)c2[nH]c3ccc(Cl)cc3c2CC(=O)N2CCC(N)C2)c1 (stereo unspecified)
20,59 to 61,CSc1ccc(Oc2ccc([N+](=O)[O-])cc2)cc1
21,126 to 128,COC(=O)C(Cc1ccc(OCCc2nc(-c3ccccc3)oc2C)cc1)C(=O)NC(C)=O (stereo unspecified)
22,186 to 187,Cc1oc(-c2ccccc2)nc1COc1ccc(Cn2cc(/C=C/C(=O)O)cn2)cc1
23,215 to 216,Oc1ccc(-c2ccc3c(Cl)c(O)ccc3n2)cc1

row,melting point [°C],Compound
1,116 to 117,CC1(C)COC(c2c(F)cccc2C2(C)CCCC2)=N1
2,103 to 105,COc1c(C2CCN(CCCCNC(=O)c3ccc(-c4ccc(Cl)cc4)cn3)CC2)ccc2c1CCCC2
3,238 to 239,O=C1c2cc(Cl)ccc2N(N2CCOCC2)C2=NCCN12
4,152 to 156,CC(C)(C)n1ncc(SCc2ccc(Oc3ccc(C(F)(F)F)cc3)cc2)c(Cl)c1=O
5,189 to 190,CC1(c2ccc(OCc3ccccc3)c(Br)c2)C(=O)Nc2cc(Cl)cc(Cl)c2C1=O (stereo unspecified)
6,105 to 106,CC(C)(C)OC(=O)c1ccc(CN(CCc2ccccc2)C(=O)OC(C)(C)C)c(N)c1
7,195 to 196,CCC(=O)N1CCC(NC(=O)Nc2ccc(OC(F)(F)F)cc2)CC1
8,229 to 231,COc1ccc(NC(=O)Nc2c(C)cc(Oc3ccc4nc(COc5ccc(CC6SC(=O)NC6=O)cc5)n(C)c4c3)cc2C)cc1 (stereo unspecified)
9,233 to 234,N#CCc1c[nH]c2ccc(NC(=O)NC3CCCCC3)cc12
10,168 to 170,CCOC(=O)c1c(C)nc2c(c1NCCCN1CCOCC1)NC(=O)CN2
11,268 to 269,O=C(O)c1ccc(-c2ccc3cc(CCCO)c(C45CC6CC(CC(C6)C4)C5)cc3c2)cc1
12,94 to 95,CCOC(=O)C(=O)c1c(C(=O)OCC)n(C)c2cc(Cl)ccc12
13,203 to 204,OC[C@H]1O[C@@H](n2cnc3c(N[C@H]4CC[C@H](O)CC4)nc(Cl)nc32)[C@H](O)[C@@H]1O
14,150,CCn1c(-c2ccnc(N)c2)nnc1C(C)(C)Oc1c(F)cc(Cl)cc1F
15,183,CSCC[C@@H](NC(=O)OC(C)(C)C)C(=O)Nc1ccc(N2C[C@H](CNC(=O)c3ccc(Cl)s3)OC2=O)cc1
16,73 to 74,O=C1C2=C(CCCC2)C(=O)N1c1ccc(F)cc1F
17,179 to 182,O=C(O)Cc1c(C(=O)c2ccc(Cl)c(F)c2)[nH]c2cc(Cl)ccc12
18,79.8,C=CCOc1cc(-n2ncc(C(F)(F)F)c(C)c2=O)c(F)cc1Cl
19,89,FC(F)(F)c1nc[nH]n1
20,115,COCc1ccc(S(=O)(=O)N2CCCC2c2ccc(F)cc2)cc1 (racemic)
21,82 to 84,CCOc1c(C#CCO)cc(C(C)(C)C)cc1C(C)(C)C
22,122 to 124,COc1ccc(C(=O)c2c(F)cccc2F)cc1

row,Compound,melting point [°C]
1,Cc1nnc2n1-c1ccc(Cl)cc1C(c1ccccc1)=CC2,235
2,CN1CC(CN2CC(=O)NC2=O)=CC2c3cccc4[nH]cc(c34)CC21 (stereo unspecified),204 to 206
3,C1CCC2NC3NC4CCCCC4NC3NC2C1 (stereo unspecified),148 to 155
4,CC12CCC(O)CC1CCC1C2CCC2(C)C(C(=O)COc3cccnc3)CCC12 (stereo unspecified),63 to 66
5,CC(C)(C)C12OOC1(c1cc3cc(O[Si](C)(C)C(C)(C)C)ccc3o1)OCC2(C)C (stereo unspecified),117 to 118
